Assay results reported in patent publication US20260216195A1, “MUTANT-SELECTIVE EGFR INHIBITORS” (Dana-Farber Cancer Institute, Inc., priority 2023, published 2026).

How the values were obtained:
EGFR L858R/T790M = EGFR L858R/T790M (Homo sapiens, UniProt P00533, L858R/T790M); experiment: HTRF-based EGFR biochemical assay, L858R/T790M enzyme; conditions: L858R/T790M 0.02 nM enzyme, 100 μM ATP, 30 min preincubation, read-out: LRTM enzyme IC50
Procedure: (§1) EGFR biochemical activity measurements were carried out using the homogeneous time-resolved fluorescence (HTRF) assay (Cisbio). Inhibitors and DMSO normalizations were first dispensed to empty black low-volume 384-well plates (Corning) with D300 digital liquid dispenser (HP). All reactions were carried out at room temperature and solutions were added to plates with a Multidrop Combi Reagent Dispenser (ThermoFisher). The reaction mixture (10 μL final volume) contained 1 μM tyrosine kinase peptide-biotin substrate and mutant EGFR in a reaction buffer (50 mM HEPES pH 7.0, 5 mM MgCl2,1 mM MnCl2, 0.01% BSA, 2 mM TCEP, 0.1 mM NaVO4). Enzyme concentrations were adjusted to accommodate varying kinase activities (L858R 0.1 nM, L858R/T790M 0.02 nM). Enzyme reaction solution (2× concentrations, 5 μL) was added to 384-well plates containing compounds and incubated for 30 mins. Enzyme reactions were initiated with the addition of 5 μL of ATP to a final concentration of 100 μM and reacted for 20 mins. Reactions were quenched with the addition of 10 μL of phospho-tyrosine antibody-Europium(III) cryptate (1-to-180 volume ratio) and Streptavidin-XL665 (46.7 nM) in EDTA-containing detection buffer, then incubated at room temperature for 1 hour, and read with a PHERAstar plate reader (excitation=337 nm, emission=620 nm and 665 nm). IC50 values were determined by inhibition curves (11-point curves from 1.0 μM to 0.130 nM or 23-point curves from 1.0 μM to […]) in triplicate with non-linear least squares fit in GraphPad Prism 7.0d. The data obtained are shown in Table 2 below where “−” is indicative of an IC50 value of >5 nM “+” is indicative of an IC50 value of <5 nM, “++” is indicative of an IC50 value of <1 nM, and “+++” is indicative of an IC50 value of <0.5 nM.

EGFR L858R = EGFR L858R (Homo sapiens, UniProt P00533, L858R); experiment: HTRF-based EGFR biochemical assay, L858R enzyme; conditions: L858R 0.1 nM enzyme, 100 μM ATP, 30 min preincubation, read-out: LR enzyme IC50
Procedure: as §1

[1] = molecular target: EGFR mutant L858R Ba/F3 cells (Homo sapiens, UniProt P00533, L858R, cells depend on it); experiment: Ba/F3 cell proliferation (Cell Titer Glo), EGFR L858R; assay type: cell-based, murine; conditions: 72 hours, read-out: BaF3 cell L858R IC50
Source text: (§2) The EGFR mutant L858R and L858R/T790M Ba/F3 cells have been previously described (Zhou, W., et al. Nature 462, 2009, 1070-1074). All cell lines were maintained in RPMI 1640 (Cellgro; Mediatech Inc., Herndon, CA) supplemented with 10% FBS, 100 units/mL penicillin, 100 units/mL streptomycin. The EGFR 1941R mutation was introduced via site directed mutagenesis using the Quick Change Site-Directed Mutagenesis kit (Stratagene; La Jolla, CA) according to the manufacturer's instructions. All constructs were confirmed by DNA sequencing. The constructs were shuttled into the retroviral vector JP1540 using the Cre-recombination system (Agilent Technologies, Santa Clara, CA). Ba/F3 cells were then infected with retrovirus per standard protocols, as described previously (Zhou, et al, Nature 2009). Stable clones were obtained by selection in puromycin (2 μg/ml).
(§3) Growth and inhibition of growth was assessed by the Cell Titer Glo assay (Promega, Madison, WI) and was performed according to the manufacturer's instructions. The Cell Titer Glo assay is a luminescence-based method used to determine the number of viable cells based on quantitation of the ATP present, which is directly proportional to the amount of metabolically active cells present. Ba/F3 cells of different EGFR genotypes were exposed to the compounds disclosed herein for 72 hours and the number of cells used per experiment was determined empirically as has been previously established (Zhou, et al., Nature 2009). All experimental points were set up in triplicates in 384-well plates and all experiments were repeated at least three times. […] The curves were fitted using a non-linear regression model with a sigmoidal dose response.

[2] = molecular target: EGFR mutant L858R/T790M Ba/F3 cells (Homo sapiens, UniProt P00533, T790M/L858R, cells depend on it); experiment: Ba/F3 cell proliferation (Cell Titer Glo), EGFR L858R/T790M; assay type: cell-based, murine; conditions: 72 hours, read-out: BaF3 cell L858R/T790M
Source text: as §2, §3

EGFR L858R, sequence (P00533 25-1210 L858R): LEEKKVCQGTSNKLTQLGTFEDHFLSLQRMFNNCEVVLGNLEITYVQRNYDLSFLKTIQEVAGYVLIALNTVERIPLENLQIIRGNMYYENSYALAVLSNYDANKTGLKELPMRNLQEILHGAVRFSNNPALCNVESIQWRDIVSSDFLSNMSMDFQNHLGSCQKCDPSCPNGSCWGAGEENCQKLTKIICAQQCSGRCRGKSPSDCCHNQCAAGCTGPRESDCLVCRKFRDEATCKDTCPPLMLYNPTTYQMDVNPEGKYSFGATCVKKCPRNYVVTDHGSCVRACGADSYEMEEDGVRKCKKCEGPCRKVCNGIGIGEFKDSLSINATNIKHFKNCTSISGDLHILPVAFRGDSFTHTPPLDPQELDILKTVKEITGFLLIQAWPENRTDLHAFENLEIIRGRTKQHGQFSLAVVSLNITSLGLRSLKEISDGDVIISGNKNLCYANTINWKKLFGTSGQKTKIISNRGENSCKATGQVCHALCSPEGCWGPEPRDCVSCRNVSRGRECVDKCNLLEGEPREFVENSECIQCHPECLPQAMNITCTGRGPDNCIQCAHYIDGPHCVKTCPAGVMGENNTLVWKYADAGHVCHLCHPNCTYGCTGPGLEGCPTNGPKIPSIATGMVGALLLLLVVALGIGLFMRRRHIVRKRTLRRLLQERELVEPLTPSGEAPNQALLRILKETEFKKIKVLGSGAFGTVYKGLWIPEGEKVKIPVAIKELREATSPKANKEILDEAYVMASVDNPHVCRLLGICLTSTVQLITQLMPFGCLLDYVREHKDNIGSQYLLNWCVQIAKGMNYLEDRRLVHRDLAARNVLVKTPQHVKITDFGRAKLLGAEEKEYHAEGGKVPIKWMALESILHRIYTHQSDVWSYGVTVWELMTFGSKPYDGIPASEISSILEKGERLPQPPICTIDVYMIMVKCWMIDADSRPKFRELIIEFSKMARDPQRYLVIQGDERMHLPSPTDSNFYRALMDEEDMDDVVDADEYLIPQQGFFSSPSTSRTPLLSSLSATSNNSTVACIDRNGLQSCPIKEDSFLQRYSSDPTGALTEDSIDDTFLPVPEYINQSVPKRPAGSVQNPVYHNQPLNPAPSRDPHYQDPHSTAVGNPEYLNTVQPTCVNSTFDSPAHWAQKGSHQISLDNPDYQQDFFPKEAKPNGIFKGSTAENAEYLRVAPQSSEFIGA
EGFR mutant L858R Ba/F3 cells, sequence (P00533 whole entry L858R): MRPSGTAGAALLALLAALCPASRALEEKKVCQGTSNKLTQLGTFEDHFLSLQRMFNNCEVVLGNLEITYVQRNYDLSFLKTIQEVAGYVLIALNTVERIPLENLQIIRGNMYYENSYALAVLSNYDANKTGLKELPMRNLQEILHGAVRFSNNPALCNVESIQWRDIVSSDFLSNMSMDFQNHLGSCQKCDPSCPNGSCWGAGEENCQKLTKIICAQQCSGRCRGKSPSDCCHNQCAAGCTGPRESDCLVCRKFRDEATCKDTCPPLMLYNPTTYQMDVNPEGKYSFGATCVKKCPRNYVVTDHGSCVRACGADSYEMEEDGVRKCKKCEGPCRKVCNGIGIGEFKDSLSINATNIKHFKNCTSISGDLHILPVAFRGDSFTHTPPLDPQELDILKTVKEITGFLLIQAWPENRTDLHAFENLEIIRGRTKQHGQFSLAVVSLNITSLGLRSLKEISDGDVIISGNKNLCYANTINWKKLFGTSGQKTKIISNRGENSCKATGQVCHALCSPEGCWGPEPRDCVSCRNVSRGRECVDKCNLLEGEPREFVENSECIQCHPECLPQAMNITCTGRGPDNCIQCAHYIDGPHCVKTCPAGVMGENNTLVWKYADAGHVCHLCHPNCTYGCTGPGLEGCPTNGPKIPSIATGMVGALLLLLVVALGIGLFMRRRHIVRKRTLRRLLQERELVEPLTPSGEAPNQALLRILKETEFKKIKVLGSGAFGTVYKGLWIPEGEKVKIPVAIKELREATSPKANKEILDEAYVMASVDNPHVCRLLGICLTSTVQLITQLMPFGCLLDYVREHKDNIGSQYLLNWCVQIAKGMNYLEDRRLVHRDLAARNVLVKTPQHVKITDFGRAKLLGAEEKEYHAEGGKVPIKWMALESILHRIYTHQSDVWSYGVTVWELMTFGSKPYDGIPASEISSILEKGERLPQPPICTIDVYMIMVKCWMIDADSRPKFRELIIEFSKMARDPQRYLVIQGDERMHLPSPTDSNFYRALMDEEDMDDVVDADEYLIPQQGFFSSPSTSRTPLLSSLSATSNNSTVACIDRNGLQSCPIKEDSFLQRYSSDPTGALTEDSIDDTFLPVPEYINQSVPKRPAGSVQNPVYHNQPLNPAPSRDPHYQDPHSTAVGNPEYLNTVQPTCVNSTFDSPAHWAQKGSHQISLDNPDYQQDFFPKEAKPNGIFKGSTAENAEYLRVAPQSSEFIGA
EGFR L858R/T790M, sequence (P00533 25-1210 T790M/L858R): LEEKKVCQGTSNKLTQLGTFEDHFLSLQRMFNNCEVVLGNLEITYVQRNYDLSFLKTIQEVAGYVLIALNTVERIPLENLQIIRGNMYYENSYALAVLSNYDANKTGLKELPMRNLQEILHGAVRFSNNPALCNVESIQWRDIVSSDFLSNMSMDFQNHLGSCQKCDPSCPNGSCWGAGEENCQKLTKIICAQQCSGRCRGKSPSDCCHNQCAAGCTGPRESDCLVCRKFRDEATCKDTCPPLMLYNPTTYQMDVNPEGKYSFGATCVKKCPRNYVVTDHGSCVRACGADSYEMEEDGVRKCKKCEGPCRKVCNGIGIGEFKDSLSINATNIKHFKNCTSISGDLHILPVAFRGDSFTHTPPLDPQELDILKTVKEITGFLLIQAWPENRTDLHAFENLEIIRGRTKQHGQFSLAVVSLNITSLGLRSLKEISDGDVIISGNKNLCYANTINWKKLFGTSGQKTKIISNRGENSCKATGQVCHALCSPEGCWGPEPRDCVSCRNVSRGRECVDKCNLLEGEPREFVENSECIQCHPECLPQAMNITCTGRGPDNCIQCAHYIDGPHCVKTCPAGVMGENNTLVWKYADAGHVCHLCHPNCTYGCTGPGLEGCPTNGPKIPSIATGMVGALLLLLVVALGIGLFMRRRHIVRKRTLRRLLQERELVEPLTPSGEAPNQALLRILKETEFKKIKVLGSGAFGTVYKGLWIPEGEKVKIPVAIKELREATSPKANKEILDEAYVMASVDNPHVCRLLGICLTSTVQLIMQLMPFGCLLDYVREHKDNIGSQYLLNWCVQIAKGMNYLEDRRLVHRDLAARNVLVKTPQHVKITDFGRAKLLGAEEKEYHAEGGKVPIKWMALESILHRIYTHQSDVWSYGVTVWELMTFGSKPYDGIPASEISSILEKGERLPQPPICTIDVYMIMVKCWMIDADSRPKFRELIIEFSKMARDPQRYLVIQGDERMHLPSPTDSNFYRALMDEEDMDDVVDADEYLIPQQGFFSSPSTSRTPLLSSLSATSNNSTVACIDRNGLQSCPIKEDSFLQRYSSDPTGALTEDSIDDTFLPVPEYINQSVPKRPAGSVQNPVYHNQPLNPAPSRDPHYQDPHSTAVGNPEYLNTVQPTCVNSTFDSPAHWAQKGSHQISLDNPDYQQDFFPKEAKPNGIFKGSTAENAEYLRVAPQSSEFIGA
EGFR mutant L858R/T790M Ba/F3 cells, sequence (P00533 whole entry T790M/L858R): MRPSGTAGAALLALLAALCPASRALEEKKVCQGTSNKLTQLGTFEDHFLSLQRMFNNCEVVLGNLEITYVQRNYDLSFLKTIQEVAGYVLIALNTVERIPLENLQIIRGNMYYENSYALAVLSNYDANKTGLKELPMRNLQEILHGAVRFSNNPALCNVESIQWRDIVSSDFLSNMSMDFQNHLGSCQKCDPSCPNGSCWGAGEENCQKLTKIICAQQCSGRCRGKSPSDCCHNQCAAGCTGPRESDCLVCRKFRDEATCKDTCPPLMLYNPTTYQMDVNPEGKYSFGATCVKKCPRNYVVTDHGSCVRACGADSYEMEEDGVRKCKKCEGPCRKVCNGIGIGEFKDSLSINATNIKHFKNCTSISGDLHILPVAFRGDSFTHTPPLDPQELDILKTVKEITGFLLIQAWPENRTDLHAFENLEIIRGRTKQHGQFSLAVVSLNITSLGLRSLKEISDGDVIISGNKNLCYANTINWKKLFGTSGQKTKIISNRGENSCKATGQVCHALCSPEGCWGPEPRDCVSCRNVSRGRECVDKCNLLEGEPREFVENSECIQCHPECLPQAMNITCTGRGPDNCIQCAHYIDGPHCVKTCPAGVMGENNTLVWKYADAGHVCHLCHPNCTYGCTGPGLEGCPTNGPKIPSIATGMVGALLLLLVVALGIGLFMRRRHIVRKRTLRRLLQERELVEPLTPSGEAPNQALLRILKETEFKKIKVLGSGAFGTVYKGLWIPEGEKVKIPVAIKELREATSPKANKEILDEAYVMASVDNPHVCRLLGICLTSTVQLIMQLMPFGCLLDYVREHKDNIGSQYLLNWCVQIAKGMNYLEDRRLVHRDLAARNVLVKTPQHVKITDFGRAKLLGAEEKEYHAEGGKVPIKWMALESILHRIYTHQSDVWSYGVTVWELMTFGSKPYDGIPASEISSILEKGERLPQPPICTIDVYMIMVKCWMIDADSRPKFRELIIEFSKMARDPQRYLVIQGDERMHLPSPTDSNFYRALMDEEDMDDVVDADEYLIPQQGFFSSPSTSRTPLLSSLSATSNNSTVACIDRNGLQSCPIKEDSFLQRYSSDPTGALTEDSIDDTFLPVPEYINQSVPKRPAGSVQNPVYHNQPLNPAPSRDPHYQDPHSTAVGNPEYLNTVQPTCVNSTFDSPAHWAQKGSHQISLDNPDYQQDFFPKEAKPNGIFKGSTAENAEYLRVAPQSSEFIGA

SMILES	IC50 (EGFR L858R/T790M)	IC50 (EGFR L858R)	GI50 [1]	GI50 [2]
CN1CCC(c2ccc(-c3cc(F)c4c(=O)n(C(C(=O)Nc5nccs5)c5ncn6c5CCC6)ccc4c3)cc2)CC1 (centres unmarked) [Compound 001, 2-(6,7-Dihydro-5H-pyrrolo[1,2-c]imidazol-1-yl)-2-(8-fluoro-6-(4-(1-methylpiperidin-4-yl)phenyl)-1-oxoisoquinolin-2(1H)-yl)-N-(thiazol-2-yl)acetamide]	< 0.5 nM	< 5 nM	< 500 nM	< 100 nM
CN1CCC(c2ccc(-c3cc(F)c4c(=O)n(C(C(=O)Nc5nccs5)c5ncn6c5C[C@@H](F)C6)ccc4c3)cc2)CC1 (stereo partly drawn) [Compound 002, 2-((R)-6-Fluoro-6,7-dihydro-5H-pyrrolo[1,2-c]imidazol-1-yl)-2-(8-fluoro-6-(4-(1-methylpiperidin-4-yl)phenyl)-1-oxoisoquinolin-2(1H)-yl)-N-(thiazol-2-yl)acetamide]	< 1 nM	< 5 nM	< 500 nM	< 500 nM
CN1CCC(c2ccc(-c3cc4ccn(C(C(=O)Nc5nccs5)c5ncn6c5CCC6)c(=O)c4s3)cc2)CC1 (centres unmarked) [Compound 003, 2-(6,7-Dihydro-5H-pyrrolo[1,2-c]imidazol-1-yl)-2-(2-(4-(1-methylpiperidin-4-yl)phenyl)-7-oxothieno[2,3-c]pyridin-6(7H)-yl)-N-(thiazol-2-yl)acetamide]	< 0.5 nM	< 5 nM	< 500 nM	< 100 nM
CN1CCC(c2ccc(-c3cc4ccn(C(C(=O)Nc5nccs5)c5ncn6c5C[C@@H](F)C6)c(=O)c4s3)cc2)CC1 (stereo partly drawn) [Compound 004, 2-((R)-6-Fluoro-6,7-dihydro-5H-pyrrolo[1,2-c]imidazol-1-yl)-2-(2-(4-(1-methylpiperidin-4-yl)phenyl)-7-oxothieno[2,3-c]pyridin-6(7H)-yl)-N-(thiazol-2-yl)acetamide]	< 0.5 nM	< 5 nM	< 5000 nM	< 500 nM
CN1CCC(c2ccc(-c3ccc4ncn(C(C(=O)Nc5nccs5)c5ncn6c5CCC6)c(=O)c4c3)cc2)CC1 (centres unmarked) [Compound 005, 2-(6,7-Dihydro-5H-pyrrolo[1,2-c]imidazol-1-yl)-2-(6-(4-(1-methylpiperidin-4-yl)phenyl)-4-oxoquinazolin-3(4H)-yl)-N-(thiazol-2-yl)acetamide]	< 0.5 nM	< 1 nM	< 500 nM	< 100 nM
CN1CCC(c2ccc(-c3ccc4ncn(C(C(=O)Nc5nccs5)c5ncn6c5CCC6)c(=O)c4c3F)cc2)CC1 (centres unmarked) [Compound 006, 2-(6,7-Dihydro-5H-pyrrolo[1,2-c]imidazol-1-yl)-2-(5-fluoro-6-(4-(1-methylpiperidin-4-yl)phenyl)-4-oxoquinazolin-3(4H)-yl)-N-(thiazol-2-yl)acetamide]	< 0.5 nM	< 5 nM	< 500 nM	< 100 nM
CN1CCN(c2ccc(-c3ccc4ncn(C(C(=O)Nc5nccs5)c5ncn6c5CCC6)c(=O)c4c3)cc2)CC1 (centres unmarked) [Compound 007, 2-(6,7-Dihydro-5H-pyrrolo[1,2-c]imidazol-1-yl)-2-(6-(4-(4-methylpiperazin-1-yl)phenyl)-4-oxoquinazolin-3(4H)-yl)-N-(thiazol-2-yl)acetamide]	< 5 nM	> 5 nM	< 5000 nM	< 5000 nM
CN1CCC(c2ccc(-c3ccc4c(c3)C(=O)N(C(C(=O)Nc3nccs3)c3ncn5c3CCC5)CO4)cc2)CC1 (centres unmarked) [Compound 008, 2-(6,7-Dihydro-5H-pyrrolo[1,2-c]imidazol-1-yl)-2-(6-(4-(1-methylpiperidin-4-yl)phenyl)-4-oxo-2H-benzo[e][1,3]oxazin-3(4H)-yl)-N-(thiazol-2-yl)acetamide]	< 0.5 nM	< 5 nM	< 500 nM	< 100 nM
